Test results taken from PMC4945415 (Journal of medicinal chemistry, 2016).
Where two headings read alike, the source gives them in different places. Marks after values point to notes of the source that are not given here.

Legend:
β-hematin (βH) formation = assay: NP-40 detergent mediated β-hematin inhibition assay; format: biochemical; conditions: read-out: βH inhibition IC50; NP-40 assay
[1] = In vitro metabolic stability, rat liver microsomes
[2] = tested on: Chinese hamster ovarian (CHO) cell line; conditions: read-out: CHO IC50
[3] = tested on: NF54 strain of P. falciparum; assay: Parasite growth inhibition, CQ-sensitive NF54 strain; format: cell-based, Plasmodium falciparum
[4] = tested on: parasitized erythrocyte, CQ-sensitive D10 strain; assay: Inoculum effect measurement of cellular accumulation; format: cell-based, Plasmodium falciparum; conditions: IC50 vs initial parasitemia
[5] = In vitro metabolic stability, mouse liver microsomes
[6] = tested on: D6 strain of P. falciparum; conditions: read-out: parasite activity against the D6 strain, HTS; cited from earlier work
[7] = In vitro metabolic stability, human liver microsomes
Kinetic solubility = conditions: for Kinetic solubility FaSSIF / Kinetic solubility pH 6.5: pH 6.5
[8] = tested on: D10 strain of P. falciparum; assay: Parasite growth inhibition, CQ-sensitive D10 strain; format: cell-based, Plasmodium falciparum
[9] = Association constant with Fe; format: binding; conditions: for logK (association constant with Fe(III)PPIX): 1:1 complex, 7.5 μM hematin, 40% v/v DMSO, pH 7.5; for Binding constant ratio relative to 12c (K/K12c): from logK values
K1 CQ-resistant strain = conditions: read-out: K1 parasite IC50
[10] = 1:1 complex, 40% DMSO; cited from earlier work
[11] = read-out: NF54 parasite IC50, CQ-sensitive NF54 strain
[12] = read-out: D10 parasite IC50, CQ-sensitive D10 strain

5-Nitro-N,N-di(pyridin-4-yl)isophthalamide [Compound 15a]
IC50 (β-hematin (βH) formation): 4.3 ± 0.1 µM
Degradation half-life [1]: >2.5 h
Hepatic extraction (EH) [1]: <0.30
In vitro clearance [1]: <11.6 μL/min/mg protein
IC50 [2]: > 275 µM
IC50 [3, 11]: 0.7 ± 0.2 µM
inoculum effect / cellular accumulation [4]: larger accumulation ratios
Degradation half-life [5]: >2.5 h
Hepatic extraction (EH) [5]: <0.33
In vitro clearance [5]: <11.6 μL/min/mg protein
IC50 [6]: 0.19 µM
Degradation half-life [7]: >2.5 h
Hepatic extraction (EH) [7]: <0.42
In vitro clearance [7]: <11.6 μL/min/mg protein
Kinetic solubility FaSSIF (Kinetic solubility): 13 µM
Kinetic solubility pH 2 (Kinetic solubility): 199.7 μM
Kinetic solubility pH 6.5 (Kinetic solubility): < 5 μM
IC50 [8, 12]: 0.9 ± 0.1 µM

5-Methyl-N,N-di(pyridin-4-yl)isophthalamide [Compound 15f]
logK (association constant with Fe(III)PPIX) [9]: 3.92 ± 0.21
Binding constant ratio relative to 12c (K/K12c) [9]: 5.24
IC50 (β-hematin (βH) formation): 8 ± 1 µM
IC50 [3, 11]: 2.5 ± 0.6 µM

5-(tert-Butyl)-N,N-di(pyridin-4-yl)isophthalamide [Compound 15h]
IC50 (β-hematin (βH) formation): 13.3 ± 0.7 µM
IC50 [3, 11]: 1.6 ± 0.2 µM

5-(tert-Butyl)-N,N-di(pyridin-3-yl)isophthalamide [Compound 15i]
IC50 (β-hematin (βH) formation): 6.8 ± 0.1 µM
Degradation half-life [1]: 1.55 h
Hepatic extraction (EH) [1]: 0.4
In vitro clearance [1]: 33.5 μL/min/mg protein
IC50 [2]: 185 µM
IC50 [3, 11]: 0.6 ± 0.1 µM
Degradation half-life [5]: 0.873 h
Hepatic extraction (EH) [5]: 0.6
In vitro clearance [5]: 130.3 μL/min/mg protein
Degradation half-life [7]: 2.365 h
Hepatic extraction (EH) [7]: 0.4
In vitro clearance [7]: 14.1 μL/min/mg protein
Kinetic solubility FaSSIF (Kinetic solubility): 153.6 µM
Kinetic solubility pH 2 (Kinetic solubility): 197.2 μM
Kinetic solubility pH 6.5 (Kinetic solubility): 92.7 μM
IC50 (K1 CQ-resistant strain): 1.7 ± 0.4 µM
IC50 [8, 12]: 0.7 ± 0.1 µM

N,N-bis(4-((Dimethylamino)methyl)phenyl)-5-nitroisophthalamide [Compound 17]
IC50 (β-hematin (βH) formation): 7.9 ± 0.2 µM
IC50 [3, 11]: 1.5 ± 0.2 µM
inoculum effect / cellular accumulation [4]: insignificant inoculum effect

5-Methoxy-N,N-di(pyridin-4-yl)isophthalamide [Compound 15m]
IC50 (β-hematin (βH) formation): 22 ± 1 µM
IC50 [3, 11]: 3 ± 0.5 µM

5-(tert-Butyl)-N,N-diphenylisophthalamide [Compound 15j]
IC50 (β-hematin (βH) formation): > 1000 µM
IC50 [3, 11]: 8.1 ± 0.5 µM

5-Methoxy-N,N-diphenylisophthalamide [Compound 15n]
IC50 (β-hematin (βH) formation): > 1000 µM
IC50 [3, 11]: 37 ± 13 µM

5-Nitro-N,N-diphenylisophthalamide [Compound 15c]
IC50 (β-hematin (βH) formation): 7 ± 0.2 µM
IC50 [3, 11]: 1.4 ± 0.2 µM

5-Methyl-N,N-diphenylisophthalamide [Compound 15g]
IC50 (β-hematin (βH) formation): > 1000 µM
IC50 [3, 11]: 146 ± 1 µM

5-Nitro-N,N-di(pyridin-3-yl)isophthalamide [Compound 15b]
IC50 (β-hematin (βH) formation): 4.7 ± 0.7 µM
IC50 [3, 11]: 1.32 ± 0.04 µM

CCN(CC)CCCC(C)Nc1ccnc2cc(Cl)ccc12 (stereo not shown) [CQ, chloroquine, reference compound]
logK (association constant with Fe(III)PPIX) [10]: 5.52 ± 0.03 ^a
IC50 ([3]; Plasmodium falciparum, NF54, read-out: NF54 parasite IC50): 0.008 ± 0.002 µM
IC50 ([8]; Plasmodium falciparum, D10, read-out: D10 parasite IC50): 0.021 ± 0.002 µM

N,N-Di(pyridin-4-yl)isophthalamide [Compound 15k]
IC50 (β-hematin (βH) formation): 507 ± 33 µM
IC50 [3, 11]: 9 ± 4 µM

N,N-Di(pyridin-4-yl)pyridine-2,6-dicarboxamide [Compound 15o]
IC50 (β-hematin (βH) formation): 260 ± 7 µM
IC50 [3, 11]: > 315 µM

5-Cyano-N,N-diphenylisophthalamide [Compound 15e]
IC50 (β-hematin (βH) formation): 4.4 ± 0.2 µM
IC50 [8, 12]: 5.2 µM

N,N-Diphenylpyridine-2,6-dicarboxamide [Compound 15p]
IC50 (β-hematin (βH) formation): > 1000 µM
IC50 [3, 11]: > 315 µM

5-Cyano-N,N-di(pyridin-4-yl)isophthalamide [Compound 15d]
IC50 (β-hematin (βH) formation): 6.34 ± 0.09 µM
IC50 [3, 11]: 1.9 ± 0.2 µM
IC50 [8, 12]: 2 ± 0.2 µM

O=C(Nc1ccccc1)c1cc(C(=O)Nc2nc3ccccc3[nH]2)cc([N+](=O)[O-])c1 [Compound 18, N^1-(1H-Benzo[d]imidazol-2-yl)-5-nitro-N^3-phenylisophthalamide]
IC50 ([3]; Plasmodium falciparum, NF54, read-out: parasite activity (maximum dose concentration)): > 249 µM

O=C(Nc1ccncc1)c1cc([N+](=O)[O-])cc([N+](=O)[O-])c1 [Compound 12c, 3,5-Dinitro-N-(pyridin-4-yl)benzamide]
logK (association constant with Fe(III)PPIX) [9]: 3.20 ± 0.36
Binding constant ratio relative to 12c (K/K12c) [9]: 1
